In patent publication EP0874242A1, “Device and apparatus for the simultaneous detection of multiple analytes” (Randox Laboratories Ltd., priority 1997, dated 1998):

Experiments:
[1] = tested on: sulphonamide antibodies; test: Multi-sulphonamide competitive immunoassay, antibodies on APTES ceramic substrates with dihydrazide linker, with or without periodate activation; assay type: binding
Method: Multi-sulphonamide standards (200 µl) and a cocktail of sulphonamide horseradish peroxidase conjugates (100 µl) were added to the reaction wells containing the device as appropriate and incubated for 15 minutes at room temperature. The standards contained 5, 10, 50 and 100 ng/ml for each of the 12 sulphonamides.
Thereafter the multi-sulphonamide devices were washed with PBS/PEG buffer to remove excess reagents and 300 µl chemiluminescent substrate [luminol (1.4mM)/urea hydrogen peroxide (9.6mM)] per device was introduced. The devices were imaged using a CCD camera with an exposure time of up to 4 minutes. Standard curves were obtained for each of the 12 individual sulphonamides. Calibration curves for each of the 12 individual sulphonamides are represented graphically in Figure 15. The % B/Bo value plotted on the Y-axis represents the % […] of the zero standard RLU (Relative light unit) value caused by each individual sulphonamide standard (plotted on the X-axis as log10).
In a further example, ceramic substrates silanated with APTES were reacted with a dihydrazide linker. Sulphonamide antibodies were treated with sodium periodate to render them reactive towards the hydrazide linker. Control sulphonamide antibodies were simply dialysed against sodium acetate buffer pH 5.5. The RLU results are shown in Tables 4 (not treated) and 5 (treated by periodate method). […] The control antibodies (no periodate activation) gave very poor standard curves when compared to the covalently immobilised sulphonamide antibodies.

[2] = tested on: sulphonamide antibodies; test: Multi-sulphonamide competitive immunoassay in microchannels, chemiluminescent CCD detection (Example 3); assay type: binding; conditions: microchannel device, 2 minutes incubation
Method: In contrast to Example 1, a multi-sulphonamide assay has also been conducted using microchannels. The device is illustrated in Figure 11. In this Example, the reagent addition reservoirs 21 are 2 mm x 2 mm, and 300 µm deep (vol. 1.2 µl), the channels 23 are each 5 mm long, 200 µm wide and 100 µm deep (vol. 100 nl), and the reservoir 24 is 1.9 mm x 8.6 mm, and 300 µm deep (vol. 4.9 µl).
The chemical modification of the surface was performed as described in Example 1. Antibody was added to each of the channels and incubated for 2 hours at 37°C. The substrates were then blocked and washed as for Example 1.
A multi-sulphonamide standard (200 µl) and sulphonamide horseradish pexoxidase conjugates (100 µl) were mixed. 1 µl of the resultant reagent was pipetted into each of the reservoirs supplying the antibody-coated channel for each sulphonamide. The standards contained 10 or 100 ng/ml of all the sulphonamides as appropriate.
The reagent flowed by capillary action. After incubation for 2 minutes, the substrate was washed 5 times with PBS/PEG and chemiluminescent reagent [luminol (1.4 mM)/urea hydrogen peroxide (9.6 mM)] was added.
The devices were imaged using a CCD camera with an exposure time of up to 4 minutes.

[3] = 10 ng/ml standard, antibodies treated by periodate method, covalently immobilised (Table 5)
[4] = 10 ng/ml standard, control antibodies not treated with periodate (Table 4)
[5] = 100 ng/ml standard, antibodies treated by periodate method, covalently immobilised (Table 5)
[6] = 100 ng/ml standard, control antibodies not treated with periodate (Table 4)

Structure (SMILES): Nc1ccc(S(=O)(=O)Nc2nccs2)cc1 [Sulphathiazole, sulphathiazole]
- % B/Bo [1, 3]: 32%
- % B/Bo [1, 4]: 28%
- % B/Bo [1, 5]: 16%

Structure (SMILES): Nc1ccc(S(=O)(=O)Nc2cnc3ccccc3n2)cc1 [Sulphaquinoxaline, sulphaquinoxaline]
- % B/Bo ([2]; 10 ng/ml standard): 56%
- % B/Bo ([2]; 100 ng/ml standard): 24%
- % B/Bo [1, 3]: 58%
- % B/Bo [1, 4]: 79%
- % B/Bo [1, 5]: 53%
- % B/Bo [1, 6]: 93%

Structure (SMILES): COc1ccc(NS(=O)(=O)c2ccc(N)cc2)nn1 [Sulphamethoxypyridazine, sulphamethoxypyridazine]
- % B/Bo ([2]; 10 ng/ml standard): 28%
- % B/Bo ([2]; 100 ng/ml standard): 15%
- % B/Bo [1, 3]: 74%
- % B/Bo [1, 4]: 84%
- % B/Bo [1, 5]: 40%

Structure (SMILES): Nc1ccc(S(=O)(=O)Nc2ccc(Cl)nn2)cc1 [Sulphachloropyridazine, sulphachloropyridazine]
- % B/Bo [1, 3]: 30%
- % B/Bo [1, 4]: 24%
- % B/Bo [1, 5]: 8%

Structure (SMILES): COc1cc(NS(=O)(=O)c2ccc(N)cc2)nc(OC)n1 [Sulphadimethoxine, sulphadimethoxine]
- % B/Bo [1, 3]: 46%
- % B/Bo [1, 5]: 36%
- % B/Bo [1, 6]: 97%

Structure (SMILES): Cc1noc(NS(=O)(=O)c2ccc(N)cc2)c1C [Sulphisoxazole, sulphisoxazole]
- % B/Bo [1, 3]: 27%
- % B/Bo [1, 4]: 23%
- % B/Bo [1, 5]: 9%

Structure (SMILES): COc1ncnc(NS(=O)(=O)c2ccc(N)cc2)c1OC [Sulphadoxine, sulphadoxine]
- % B/Bo [1, 3]: 31%
- % B/Bo [1, 4]: 51%
- % B/Bo [1, 5]: 20%

Structure (SMILES): Cc1cc(C)nc(NS(=O)(=O)c2ccc(N)cc2)n1 [Sulphamethazine, sulphamethazine]
- % B/Bo ([2]; 10 ng/ml standard): 14%
- % B/Bo ([2]; 100 ng/ml standard): 7%
- % B/Bo [1, 3]: 77%
- % B/Bo [1, 5]: 61%

Structure (SMILES): Cc1ccnc(NS(=O)(=O)c2ccc(N)cc2)n1 [Sulphamerazine, sulphamerazine]
- % B/Bo ([2]; 10 ng/ml standard): 40%
- % B/Bo ([2]; 100 ng/ml standard): 22%
- % B/Bo [1, 3]: 43%
- % B/Bo [1, 4]: 52%
- % B/Bo [1, 5]: 26%
- % B/Bo [1, 6]: 56%

Structure (SMILES): Cc1nnc(NS(=O)(=O)c2ccc(N)cc2)s1 [Sulphamethizole, sulphamethizole]
- % B/Bo [1, 3]: 33%
- % B/Bo [1, 4]: 36%
- % B/Bo [1, 5]: 28%
